Measurements: patent US20030225152A1, “3-(Arylamino)methylene-1, 3-dihydro-2h-indol-2-ones as kinase inhibitors” (priority 2001, published 2003)

What was measured:
[1] = test system: VEGF induced increases in intracellular calcium levels in HUVEC (human umbilical vein endothelial cells); test: VEGF Stimulated Ca++ Signal in vitro (FLIPR); format: cell-based; settings: VEGF 5 ng/mL; for IC50: 0.01 to 10.0 μM
In short: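 HUVEC loaded with Fluo-4 (45 min, 37° C.), washed, then pre-incubated 30 min with compound (10 μM single dose or 0.01–10.0 μM; 0.1% DMSO) before 5 ng/mL VEGF. Fluorescence at 516 nm read by FLIPR; IC50 from % inhibition of max-min VEGF response.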

[2] = molecular target: T1, cytoplasmic domain of the human VEGF receptor (VEGFR-2) (Homo sapiens, UniProt P35968); test: KDR Assay; format: biochemical; settings: His-VEGFR-2; 3.6 μM ATP
T1 construct: The cytoplasmic domain of the human VEGF receptor (VEGFR-2) was expressed as a Histidine-tagged fusion protein; Histidine tag
T1 sequence (P35968 786-1356): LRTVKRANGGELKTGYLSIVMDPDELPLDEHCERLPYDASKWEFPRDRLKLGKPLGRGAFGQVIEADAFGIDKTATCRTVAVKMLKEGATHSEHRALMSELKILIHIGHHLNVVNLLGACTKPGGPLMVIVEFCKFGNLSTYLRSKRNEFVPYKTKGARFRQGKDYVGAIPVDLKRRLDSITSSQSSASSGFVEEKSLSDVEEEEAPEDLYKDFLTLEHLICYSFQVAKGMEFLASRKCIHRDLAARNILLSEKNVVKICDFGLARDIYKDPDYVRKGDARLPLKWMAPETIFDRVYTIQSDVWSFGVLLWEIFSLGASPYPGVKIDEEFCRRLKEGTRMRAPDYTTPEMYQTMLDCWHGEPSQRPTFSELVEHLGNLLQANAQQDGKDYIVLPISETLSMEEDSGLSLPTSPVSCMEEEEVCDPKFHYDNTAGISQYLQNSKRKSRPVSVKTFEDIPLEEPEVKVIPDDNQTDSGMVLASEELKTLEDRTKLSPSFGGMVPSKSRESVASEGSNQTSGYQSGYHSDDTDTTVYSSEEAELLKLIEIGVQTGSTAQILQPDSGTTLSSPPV
Protocol: The cytoplasmic domain of the human VEGF receptor (VEGFR-2) was expressed as a Histidine-tagged fusion protein following infection of insect cells using an engineered baculovirus. His-VEGFR-2 was purified to homogeneity, as determined by SDS-PAGE, using nickel resin chromatography. Kinase assays were performed in 96 well microtiter plates that were coated overnight with 30 μg of poly-Glu-Tyr (4:1) in 10 mM Phosphate Buffered Saline (PBS), pH 7.2-7.4. The plates were incubated with 1% BSA and then washed four times with PBS prior to starting the reaction. Reactions were carried out in 120 μL reaction volumes containing 3.6 μM ATP in kinase buffer (50 mM Hepes buffer pH 7.4, 20 mM MgCl2, 0.1 mM MnCl2 and 0.2 mM Na3VO4). Test compounds were reconstituted in 100% DMSO and added to the reaction to give a final DMSO concentration of 5%. Reactions were initiated by the addition 0.5 ng of purified protein. Following a ten minute incubation at 25° C., the reactions were washed four times with PBS containing 0.05% Tween-20. 100 μl of a monoclonal anti-phosphotyrosine antibody-peroxidase conjugate was diluted 1:10000 in PBS-Tween-20 and added to the wells for 30 minutes. Following four washes with PBS-Tween-20, 100 μl of O-phenylenediamine Dihydrochloride in Phosphate-citrate buffer, containing urea hydrogen peroxide, was added to the wells for 7 minutes as a colorimetric substrate for the peroxidase. The reaction was terminated by the addition of 100 μl of 2.5N H2SO4 to each well and read using a microplate ELISA reader set at 492 nm. IC50 values for compound inhibition were calculated directly from graphs of optical density (arbitrary units) versus compound concentration following subtraction of blank values.

SMILES	IC50 [2]	inhibition at 10 µM ([1]; Homo sapiens)	IC50 ([1]; Homo sapiens)	IC50 [1]
O=C(O)CCCc1ccc(NC=C2C(=O)Nc3ccc(Cl)cc32)cc1 [Example 150, 4-{4-[(5-Chloro-2-oxo-1,2-dihydro-indol-3-ylidenemethyl)-amino]-phenyl}-butyric acid]	300 nM	90.9%	1850 nM	
O=C1Nc2ccc(F)cc2C1=CNc1ccc2[nH]ccc2c1 [Example 162, 5-Fluoro-3-[(1 h-indol-5-ylamino)-methylene]-1,3-dihydro-indol-2-one]	300 nM	89.9%	1050 nM	
O=C(O)CCc1cccc(NC=C2C(=O)Nc3ccc(F)cc32)c1 [Example 175, 3-{3-[(5-Fluoro-2-oxo-1,2-dihydro-indol-3-ylidenemethyl)-amino]-phenyl}-propionic acid]	710 nM	38%		
O=C(O)CCc1cccc(NC=C2C(=O)Nc3ccc(Cl)cc32)c1 [Example 143, 3-{3-[(5-Chloro-2-oxo-1,2-dihydro-indol-3-ylidenemethyl)-amino]-phenyl}-propionic acid]	520 nM	66.9%	7610 nM	
CC(=O)Nc1ccc(NC=C2C(=O)Nc3cccc(C)c32)cc1 [Example 130, N-{4-[(4-Methyl-2-oxo-1,2-dihydro-indol-3-ylidenemethyl)-amino]-phenyl}-acetamide]	380 nM	97.3%	≤ 1000 nM	570 nM
CCOc1ccc(NC=C2C(=O)Nc3ccccc32)cc1 [Example 82, 3-[(4-Ethoxyphenylamino)-methylene]-1,3-dihydro-indol-2-one]	380 nM		2500 nM	
CCN(CC)CCCOc1ccc(NC=C2C(=O)Nc3cc(-c4cccc(OC)c4)ccc32)cc1 [Example 277, 3-{[4-(3-Diethylamino-propoxy)-phenylamino]-methylene}-6-(3-Methoxy-phenyl)-1,3-dihydro-indol-2-one]	250 nM		≥ 10000 nM	
CC(=O)Nc1ccc(NC=C2C(=O)Nc3ccccc32)cc1 [Example 34, 3-[(4-Acetanilidylamino)-methylene]-1,3-dihydro-indol-2-one]	470 nM	94.5%	2250 nM	
Cc1cccc2c1C(=CNc1cccc(N)c1)C(=O)N2 [Example 210, 3-[(3-Amino-phenylamino)-methylene]-4-methyl-1,3-dihydro-indol-2-one]	170 nM	97.4%		
Cc1ccc(NC=C2C(=O)Nc3ccccc32)cc1N [Example 212, 3-[(3-Amino-4-methyl-phenylamino)-methylene]-1,3-dihydro-indol-2-one]	500 nM	96.5%	≤ 1000 nM	820 nM
O=C1Nc2ccccc2C1=CNc1ccc2ncsc2c1 [Example 43, 3-[(6-Benzthioazolylamino)-methylene]-1,3-dihydro-indol-2-one]	230 nM	84%	1740 nM	
COc1ccc(NC=C2C(=O)Nc3cccc(C)c32)cc1F [Example 91, 3-[(3-Fluoro-4-methoxy-phenylamino)-methylene]-4-methyl-1,3-dihydro-indol-2-one]	240 nM	93.5%	3020 nM	
Cc1cccc2c1C(=CNc1cccc(C(C)O)c1)C(=O)N2 (centres unmarked) [Example 183, 3-{[3-(1-Hydroxy-ethyl)-phenylamino]-methylene}-4-methyl-1,3-dihydro-indol-2-one]	520 nM	98.9%	≤ 1000 nM	750 nM
O=C1Nc2cccc(F)c2C1=CNc1ccc(OCCN2CCCCC2)cc1 [Example 261, 4-Fluoro-3-{[4-(2-piperidin-1-yl-ethoxy)-phenylamino]-methylene}-1,3-dihydro-indol-2-one]	390 nM		1060 nM	
CC(C)c1ccc(NC=C2C(=O)Nc3ccccc32)cc1 [Example 52, 3-[(4-Isopropyl-phenylamino)-methylene]-1,3-dihydro-indol-2-one]	580 nM	69%	2280 nM	
Cc1cccc2c1C(=CNc1cccc(CO)c1)C(=O)N2 [Example 185, 3-[(3-Hydroxymethyl-phenylamino)-methylene]-4-methyl-1,3-dihydro-indol-2-one]	330 nM	98.4%	≤ 1000 nM	870 nM

Second part, led by results:

IC50 [2]	SMILES	inhibition at 10 µM ([1]; Homo sapiens)	IC50 ([1]; Homo sapiens)	IC50 [1]
50 nM	Cc1cccc2c1C(=CNc1ccc(N3CCOCC3)cc1)C(=O)N2 [Example 227, 4-Methyl-3-[(4-morpholin-4-yl-phenylamino)-methylene]-1,3-dihydro-indol-2-one]	85.9%		
920 nM	CC(=O)Nc1ccc(NC=C2C(=O)Nc3ccc(Cl)cc32)cc1 [Example 114, N-{4-[(5-Chloro-2-oxo-1,2-dihydro-indol-3-ylidenemethyl)-amino]-phenyl}-acetamide]	89%	1930 nM	
660 nM	NS(=O)(=O)c1ccc(NC=C2C(=O)Nc3ccc(F)cc32)cc1 [Example 166, 4-[(5-Fluoro-2-oxo-1,2-dihydro-indol-3-ylidenemethyl)-amino]-benzenesulfonamide]	49.2%		
230 nM	O=C1Nc2ccc(F)cc2C1=CNc1ccc(OCCCN2CCCCC2)cc1 [Example 240, 5-Fluoro-3-{[4-(3-piperidin-1-yl-propoxy)-phenylamino]-methylene}-1,3-dihydro-indol-2-one]	98.3%		
710 nM	N#Cc1ccc2c(c1)C(=CNc1ccc(N3CCOCC3)cc1)C(=O)N2 [Example 237, 3-[(4-Morpholin-4-yl-phenylamino)-methylene]-2-oxo-2 ,3-dihydro-1 h-indole-5-carbonitrile]	36.4%		
210 nM	O=C1Nc2ccc(Cl)cc2C1=CNc1ccc(CN2CCOCC2)cc1 [Example 291, 5-Chloro-3-[(4-morpholin-4-ylmethyl-phenylamino)-methylene]-1,3-dihydro-indol-2-one]		≤ 1000 nM	660 nM
980 nM	NS(=O)(=O)c1ccc(NC=C2C(=O)Nc3ccc(Cl)cc32)cc1 [Example 116, 4-[(5-Chloro-2-oxo-1,2-dihydro-indol-3-ylidenemethyl)-amino]-benzenesulfonamide]	99.4%	1640 nM	
330 nM	O=C1Nc2cccc(F)c2C1=CNc1ccc(OCCN2CCCC2)cc1 [Example 273, 4-Fluoro-3-{[4-(2-pyrrolidin-1-yl-ethoxy)-phenylamino]-methylene}-1,3-dihydro-indol-2-one]		1070 nM	
110 nM	O=C1Nc2ccc(Cl)cc2C1=CNc1ccc(CCN2CCCCC2)cc1 [Example 285, 5-Chloro-3-{[4-(2-piperidin-1-yl-ethyl)-phenylamino]-methylene}-1,3-dihydro-indol-2-one]		≤ 1000 nM	560 nM
170 nM	O=C1Nc2cc(F)ccc2C1=CNc1ccc(OCCN2CCCCC2)cc1 [Example 253, 6-Fluoro-3-{[4-(2-piperidin-1-yl-ethoxy)-phenylamino]-methylene}-1,3-dihydro-indol-2-one]			
360 nM	O=C1Nc2ccc(F)cc2C1=CNc1ccc(OCCN2CCCCC2)cc1 [Example 263, 5-Fluoro-3-{[4-(2-piperidin-1-yl-ethoxy)-phenylamino]-methylene}-1,3-dihydro-indol-2-one]			
